Source: patent US6534447B1, “Herbicidal pyridine compounds” (BASF Aktiengesellschaft, priority 1999, dated 2003)

Assays:
Assay type in all cases: in vivo
[1] = tested on: Ipomoea hederacea (IPOHE, morning glory); test: Post-emergence herbicidal evaluation; settings: 3 weeks after treatment
How it was run: (§1)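 First, acetone solutions are diluted with water; next, formulations are sprayed at about 0.025 to 0.4 kg/ha equivalent per pot; then plants are grown on greenhouse benches; finally, seedlings are rated from 3 weeks after treatment (0 untreated-like, 9 dead).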

[2] = tested on: Dolium multiflorum (LOLMU, ryegrass); test: Post-emergence herbicidal evaluation; settings: rate 0.100 kg/ha, 3 weeks after treatment
How it was run: as §1

[3] = tested on: Abutilon theophrasti (ABUTH, velvetleaf); test: Post-emergence herbicidal evaluation; settings: 3 weeks after treatment
How it was run: as §1

[4] = tested on: Galium aparine (GALAP, cleaver); test: Post-emergence herbicidal evaluation; settings: 3 weeks after treatment
How it was run: as §1

[5] = tested on: Setaria viridis (SETVI, green foxtail); test: Post-emergence herbicidal evaluation; settings: 3 weeks after treatment
How it was run: as §1

[6] = tested on: Alopecurus myosuroides (ALOMY, black grass); test: Post-emergence herbicidal evaluation; settings: 3 weeks after treatment
How it was run: as §1

[7] = tested on: Matricaria inodora (MATIN, mayweed); test: Post-emergence herbicidal evaluation; settings: 3 weeks after treatment
How it was run: as §1

[8] = tested on: Stellaria media (STEME, chickweed); test: Post-emergence herbicidal evaluation; settings: 3 weeks after treatment
How it was run: as §1

[9] = tested on: Echinochloa grus galli (ECHCG, barnyard grass); test: Post-emergence herbicidal evaluation; settings: 3 weeks after treatment
How it was run: as §1

[10] = tested on: Zea mays (ZEAMX, maize); test: Pre-emergence herbicidal evaluation (crop); settings: 3 weeks after treatment
How it was run: (§2)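 After sowing on top of roughly one inch of soil, each pot received a spray of the compound in aqueous acetone delivering about 0.025 to 0.4 kg per hectare. Plants were then grown on greenhouse benches and scored visually from 3 weeks after treatment.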

[11] = tested on: Triticum aestivum (TRZAW, winter wheat); test: Pre-emergence herbicidal evaluation (crop); settings: 3 weeks after treatment
How it was run: as §2

[12] = tested on: Glycine max (GLXMA, soyabeans); test: Pre-emergence herbicidal evaluation (crop); settings: 3 weeks after treatment
How it was run: as §2

[13] = tested on: Ipomoea hederacea (IPOHE, morning glory); test: Pre-emergence herbicidal evaluation; settings: 3 weeks after treatment
How it was run: as §2

[14] = tested on: Abutilon theophrasti (ABUTH, velvetleaf); test: Pre-emergence herbicidal evaluation; settings: 3 weeks after treatment
How it was run: as §2

[15] = tested on: Galium aparine (GALAP, cleaver); test: Pre-emergence herbicidal evaluation; settings: 3 weeks after treatment
How it was run: as §2

[16] = tested on: Setaria viridis (SETVI, green foxtail); test: Pre-emergence herbicidal evaluation; settings: 3 weeks after treatment
How it was run: as §2

[17] = tested on: Alopecurus myosuroides (ALOMY, black grass); test: Pre-emergence herbicidal evaluation; settings: 3 weeks after treatment
How it was run: as §2

[18] = tested on: Matricaria inodora (MATIN, mayweed); test: Pre-emergence herbicidal evaluation; settings: 3 weeks after treatment
How it was run: as §2

[19] = tested on: Stellaria media (STEME, chickweed); test: Pre-emergence herbicidal evaluation; settings: 3 weeks after treatment
How it was run: as §2

[20] = tested on: Echinochloa grus galli (ECHCG, barnyard grass); test: Pre-emergence herbicidal evaluation; settings: 3 weeks after treatment
How it was run: as §2

[21] = tested on: weeds; test: Post-emergence herbicidal evaluation, overall weed control; settings: down to the lowest dose of 0.025 kg/ha
Method: These acetone solutions are diluted with water and the resulting formulations applied at dosage levels equivalent of about 0.025 to 0.4 kg per hectare of test compound per pot. After spraying the plants are placed on greenhouse benches and are cared for in the usual manner, commensurate with conventional greenhouse practices. From 3 weeks after treatment, the seedling plants are examined and rated according to the rating system provided above. A rating 0 indicates growth as untreated control, a rating 9 indicates death.

[22] = tested on: eight weed species; test: Pre-emergence herbicidal evaluation, overall weed control; settings: crop selective dose of 0.1 kg/ha
Description: The pre-emergence herbicidal activity of the compounds of the present invention is exemplified by the following test in which the seeds of a variety of monocotyledonous and dicotyledonous plants are seperately mixed with potting soil and planted on top of approximately one inch of soil in separate post. After planting, the pots are sprayed with the selected aqueous acetone solution. containing test compound in sufficient quantity to provide the equivalent of about 0.025 to 0.4 kg per hectare of test compound per pot. The treated pots are then placed on greenhouse benches, watered and cared for in accordance with conventional greenhouse procedures. From 3 weeks after treatment, the tests are terminated and each pot is examined and rated according to the rating system set forth below.
Thus, there is evidence for the good potential of the compounds of the invention for excellent cross spectrum control of both grasses and broadleaf weeds in key crops.

## Cc1cc(OCCCSC(F)(F)F)nc(Oc2ccnc(C(F)(F)F)c2)c1 [Example 53]
[1]; rate 0.025 kg/ha
  IPOHE rating: 9 (9 - Complete kill)
[1]; rate 0.100 kg/ha
  IPOHE rating: 9 (9 - Complete kill)
[1]; rate 0.400 kg/ha
  IPOHE rating: 9 (9 - Complete kill)
[2]
  LOLMU rating: 8 (8 - Approaching complete kill)
[3]; rate 0.025 kg/ha
  ABUTH rating: 8 (8 - Approaching complete kill)
[3]; rate 0.100 kg/ha
  ABUTH rating: 9 (9 - Complete kill)
[3]; rate 0.400 kg/ha
  ABUTH rating: 9 (9 - Complete kill)
[4]; rate 0.025 kg/ha
  GALAP rating: 6 (6 - Herbicidal effect)
[4]; rate 0.100 kg/ha
  GALAP rating: 9 (9 - Complete kill)
[4]; rate 0.400 kg/ha
  GALAP rating: 9 (9 - Complete kill)
[5]; rate 0.025 kg/ha
  SETVI rating: 9 (9 - Complete kill)
[5]; rate 0.100 kg/ha
  SETVI rating: 9 (9 - Complete kill)
[5]; rate 0.400 kg/ha
  SETVI rating: 9 (9 - Complete kill)
[6]; rate 0.025 kg/ha
  ALOMY rating: 6 (6 - Herbicidal effect)
[6]; rate 0.100 kg/ha
  ALOMY rating: 8 (8 - Approaching complete kill)
[6]; rate 0.400 kg/ha
  ALOMY rating: 9 (9 - Complete kill)
[7]; rate 0.025 kg/ha
  MATIN rating: 6 (6 - Herbicidal effect)
[7]; rate 0.100 kg/ha
  MATIN rating: 8 (8 - Approaching complete kill)
[7]; rate 0.400 kg/ha
  MATIN rating: 8 (8 - Approaching complete kill)
[8]; rate 0.025 kg/ha
  STEME rating: 8 (8 - Approaching complete kill)
[8]; rate 0.100 kg/ha
  STEME rating: 9 (9 - Complete kill)
[8]; rate 0.400 kg/ha
  STEME rating: 9 (9 - Complete kill)
[9]; rate 0.025 kg/ha
  ECHCG rating: 9 (9 - Complete kill)
[9]; rate 0.100 kg/ha
  ECHCG rating: 9 (9 - Complete kill)
[9]; rate 0.400 kg/ha
  ECHCG rating: 9 (9 - Complete kill)
[10]; rate 0.025 kg/ha
  ZEAMX rating: 2 (2 - Slight effect)
[10]; rate 0.100 kg/ha
  ZEAMX rating: 4 (4 - Injury)
[10]; rate 0.400 kg/ha
  ZEAMX rating: 4 (4 - Injury)
[11]; rate 0.025 kg/ha
  TRZAW rating: 1 (1 - Trace effect)
[11]; rate 0.100 kg/ha
  TRZAW rating: 2 (2 - Slight effect)
[11]; rate 0.400 kg/ha
  TRZAW rating: 4 (4 - Injury)
[12]; rate 0.025 kg/ha
  GLXMA rating: 4 (4 - Injury)
[12]; rate 0.100 kg/ha
  GLXMA rating: 4 (4 - Injury)
[12]; rate 0.400 kg/ha
  GLXMA rating: 6 (6 - Herbicidal effect)
[13]; rate 0.025 kg/ha
  IPOHE rating: 8 (8 - Approaching complete kill)
[13]; rate 0.100 kg/ha
  IPOHE rating: 8 (8 - Approaching complete kill)
[13]; rate 0.400 kg/ha
  IPOHE rating: 9 (9 - Complete kill)
[14]; rate 0.025 kg/ha
  ABUTH rating: 9 (9 - Complete kill)
[14]; rate 0.100 kg/ha
  ABUTH rating: 9 (9 - Complete kill)
[14]; rate 0.400 kg/ha
  ABUTH rating: 9 (9 - Complete kill)
[15]; rate 0.025 kg/ha
  GALAP rating: 4 (4 - Injury)
[15]; rate 0.100 kg/ha
  GALAP rating: 8 (8 - Approaching complete kill)
[15]; rate 0.400 kg/ha
  GALAP rating: 8 (8 - Approaching complete kill)
[16]; rate 0.025 kg/ha
  SETVI rating: 8 (8 - Approaching complete kill)
[16]; rate 0.100 kg/ha
  SETVI rating: 8 (8 - Approaching complete kill)
[16]; rate 0.400 kg/ha
  SETVI rating: 8 (8 - Approaching complete kill)
[17]; rate 0.025 kg/ha
  ALOMY rating: 8 (8 - Approaching complete kill)
[17]; rate 0.100 kg/ha
  ALOMY rating: 8 (8 - Approaching complete kill)
[17]; rate 0.400 kg/ha
  ALOMY rating: 8 (8 - Approaching complete kill)
[18]; rate 0.025 kg/ha
  MATIN rating: 8 (8 - Approaching complete kill)
[18]; rate 0.100 kg/ha
  MATIN rating: 8 (8 - Approaching complete kill)
[18]; rate 0.400 kg/ha
  MATIN rating: 9 (9 - Complete kill)
[19]; rate 0.025 kg/ha
  STEME rating: 9 (9 - Complete kill)
[19]; rate 0.100 kg/ha
  STEME rating: 9 (9 - Complete kill)
[19]; rate 0.400 kg/ha
  STEME rating: 9 (9 - Complete kill)
[20]; rate 0.025 kg/ha
  ECHCG rating: 7 (7 - Good herbicidal effect)
[20]; rate 0.100 kg/ha
  ECHCG rating: 8 (8 - Approaching complete kill)
[20]; rate 0.400 kg/ha
  ECHCG rating: 9 (9 - Complete kill)
[21]
  activity against weeds (in words): high levels of activity
[22]
  weed control (in words): complete control
